Values joined by “and” are separate entries in the source; they are usually repeats but may differ in a detail not shown here. Identical values can stand only once. Some results are limits rather than exact numbers.

The experiment deals with 463943-066-T-J2-PDC tumor spheroids with HUVEC/MSC, viability. Kind of experiment: Anticancer human tumor 463943-066-T-J2-PDC patient-derived colon adenocarcinoma cell line growth inhibition [TAK]. The conditions noted are these: for viability, T/C: stronger effect = lower value. An outline of the steps: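 Drug combinations, each paired with TAK-243 or ipatasertib, were tested on multi-cell spheroids of 60% malignant cells, 25% HUVEC and 15% hMSC. Top concentrations were at or near the clinical Cmax (10 microM if undetermined), decreasing by half-log; viability is given as % test/control.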

Where [1] appears, read: curve of first compound, second compound 0.3 µM.
Where [2] appears, read: curve of first compound, second compound 0.949 µM.
Where [3] appears, read: curve of first compound, second compound 3 µM.
The mark [4] stands for this setting: curve of first compound, second compound 9.49 µM.
Where [5] appears, read: curve of first compound, second compound 30 µM.
Setting [6] is: second compound 0.3 µM, first compound 0.00949 µM.
The mark [7] stands for this setting: second compound 0.3 µM, first compound 0.03 µM.
The mark [8] stands for this setting: second compound 0.949 µM, first compound 0.00949 µM.
The mark [9] stands for this setting: second compound 0.949 µM, first compound 0.03 µM.
[10] abbreviates: second compound 3 µM, first compound 0.00949 µM.
[11] abbreviates: second compound 3 µM, first compound 0.03 µM.
Setting [12] is: second compound 9.49 µM, first compound 0.00949 µM.
The mark [13] stands for this setting: second compound 9.49 µM, first compound 0.03 µM.
Setting [14] is: second compound 30 µM, first compound 0.00949 µM.
Where [15] appears, read: second compound 30 µM, first compound 0.03 µM.
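Also: spheroids exposed to drugs for seven days.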
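For viability, T/C in this document: 100% = DMSO vehicle control wells.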

By IC50 is commonly meant the concentration at which inhibition is half-maximal. In general, viability, T/C refers to the ratio of treated to control. On to `Cn1cnc2c(F)c(Nc3ccc(Br)cc3Cl)c(C(=O)NOCCO)cc21` + CC(C)NCC(C(=O)N1CCN(c2ncnc3c2C(C)CC3O)CC1)c1ccc(Cl)cc1, for which the IC50 runs as follows: under setting [1], more than 3000 nM; under setting [2], more than 3000 nM; under setting [3], more than 3000 nM; under setting [4], more than 3000 nM; under setting [5], more than 3000 nM. For the same compound, the viability, T/C under setting [6] is 102%; the viability, T/C under setting [7] is 115%; the viability, T/C (second compound 0.3 µM, first compound 0.0949 µM) was 92.8%; the viability, T/C (second compound 0.3 µM, first compound 0.3 µM) is 78%; the viability, T/C (second compound 0.3 µM, first compound 0.949 µM) was 72.6%; the viability, T/C (second compound 0.3 µM, first compound 3 µM) is 54.6%. For the same compound, the viability, T/C was 101% under setting [8]; 105% under setting [9]; 77.6% (second compound 0.949 µM, first compound 0.0949 µM); 69.2% (second compound 0.949 µM, first compound 0.3 µM); 63.9% (second compound 0.949 µM, first compound 0.949 µM); 62.3% (second compound 0.949 µM, first compound 3 µM). The viability, T/C was 90.4% under setting [10]; 103% under setting [11]; 85.2% (second compound 3 µM, first compound 0.0949 µM); 76.2% (second compound 3 µM, first compound 0.3 µM); 70.3% (second compound 3 µM, first compound 0.949 µM); 58.4% (second compound 3 µM, first compound 3 µM). For the same compound, the viability, T/C is, setting by setting: under setting [12], 102%; under setting [13], 94.6%; (second compound 9.49 µM, first compound 0.0949 µM) 88.5%; (second compound 9.49 µM, first compound 0.3 µM) 79.8%; (second compound 9.49 µM, first compound 0.949 µM) 70.2%; (second compound 9.49 µM, first compound 3 µM) 67.1%. For the same compound, the viability, T/C is, setting by setting: under setting [14], 103%; under setting [15], 92.2%; (second compound 30 µM, first compound 0.0949 µM) 88.6%; (second compound 30 µM, first compound 0.3 µM) 71.7%; (second compound 30 µM, first compound 0.949 µM) 71.3%; (second compound 30 µM, first compound 3 µM) 60.1%.

Take `COC1CC2CCC(C)C(O)(O2)C(=O)C(=O)N2CCCCC2C(=O)OC(C(C)CC2CCC(OCCO)C(OC)C2)CC(=O)C(C)C=C(C)C(O)C(OC)C(=O)C(C)CC(C)C=CC=CC=C1C` (centres undefined) + CC(C)NCC(C(=O)N1CCN(c2ncnc3c2C(C)CC3O)CC1)c1ccc(Cl)cc1: the IC50 is more than 100 nM under setting [1]; more than 100 nM under setting [2]; more than 100 nM under setting [3]; more than 100 nM under setting [4]; more than 100 nM under setting [5]. Also, the viability, T/C by setting is: (second compound 0.3 µM, first compound 0.000316 µM) 91.7%; (second compound 0.3 µM, first compound 0.001 µM) 86.2%; (second compound 0.3 µM, first compound 0.00316 µM) 90.4%; (second compound 0.3 µM, first compound 0.01 µM) 74.8%; (second compound 0.3 µM, first compound 0.0316 µM) 86.5%; (second compound 0.3 µM, first compound 0.1 µM) 77.3%. For the same compound, the viability, T/C (second compound 0.949 µM, first compound 0.000316 µM) is 85.5%; the viability, T/C (second compound 0.949 µM, first compound 0.001 µM) was 90.9%; the viability, T/C (second compound 0.949 µM, first compound 0.00316 µM) is 83.2%; the viability, T/C (second compound 0.949 µM, first compound 0.01 µM) is 76.4%; the viability, T/C (second compound 0.949 µM, first compound 0.0316 µM) was 78.8%; the viability, T/C (second compound 0.949 µM, first compound 0.1 µM) is 80.7%. Besides, the viability, T/C reads like this: (second compound 3 µM, first compound 0.000316 µM) 86%; (second compound 3 µM, first compound 0.001 µM) 91.3%; (second compound 3 µM, first compound 0.00316 µM) 81.4%; (second compound 3 µM, first compound 0.01 µM) 80.3%; (second compound 3 µM, first compound 0.0316 µM) 78.2%; (second compound 3 µM, first compound 0.1 µM) 78.3%. For the same compound, the viability, T/C is 84.8% (second compound 9.49 µM, first compound 0.000316 µM); 76.7% (second compound 9.49 µM, first compound 0.001 µM); 81.5% (second compound 9.49 µM, first compound 0.00316 µM); 76.6% (second compound 9.49 µM, first compound 0.01 µM); 80% (second compound 9.49 µM, first compound 0.0316 µM); 78.6% (second compound 9.49 µM, first compound 0.1 µM). The viability, T/C runs as follows: (second compound 30 µM, first compound 0.000316 µM) 85.8%; (second compound 30 µM, first compound 0.001 µM) 79.9%; (second compound 30 µM, first compound 0.00316 µM) 82.8%; (second compound 30 µM, first compound 0.01 µM) 78.8%; (second compound 30 µM, first compound 0.0316 µM) 73.1%; (second compound 30 µM, first compound 0.1 µM) 80.8%.

Consider `CC(C)CC(NC(=O)C(Cc1ccccc1)NC(=O)c1cnccn1)B(O)O` (centres undefined), for which the viability, T/C is, setting by setting: (compound 31.6 pM) 106% and 127%; (compound 0.0001 µM) 109% and 112%; (compound 0.000316 µM) 97.4% and 97.8%; (compound 0.001 µM) 87.7% and 98.7%; (compound 0.00316 µM) 90.2% and 85.5%; (compound 0.01 µM) 70.7% and 80.7%. For the same compound, the IC50 (curve of compound) is more than 10 nM.

Consider `CC(=O)Nc1cccc(-n2c(=O)n(C3CC3)c(=O)c3c(Nc4ccc(I)cc4F)n(C)c(=O)c(C)c32)c1` + CC(C)NCC(C(=O)N1CCN(c2ncnc3c2C(C)CC3O)CC1)c1ccc(Cl)cc1, for which the IC50 under setting [1] was more than 30 nM; the IC50 under setting [2] was more than 30 nM; the IC50 under setting [3] was more than 30 nM; the IC50 under setting [4] is more than 30 nM; the half-maximal inhibitory concentration (IC50) under setting [5] was more than 30 nM. The viability, T/C is, setting by setting: (second compound 0.3 µM, first compound 94.9 pM) 98.7%; (second compound 0.3 µM, first compound 0.0003 µM) 94.3%; (second compound 0.3 µM, first compound 0.000949 µM) 83.2%; (second compound 0.3 µM, first compound 0.003 µM) 82.2%; under setting [6], 71.5%; under setting [7], 65.2%. In addition, the viability, T/C by setting is: (second compound 0.949 µM, first compound 94.9 pM) 95.2%; (second compound 0.949 µM, first compound 0.0003 µM) 91.5%; (second compound 0.949 µM, first compound 0.000949 µM) 84.1%; (second compound 0.949 µM, first compound 0.003 µM) 83.9%; under setting [8], 77.2%; under setting [9], 61.2%. The viability, T/C is 96.1% (second compound 3 µM, first compound 94.9 pM); 96.3% (second compound 3 µM, first compound 0.0003 µM); 87.2% (second compound 3 µM, first compound 0.000949 µM); 84.4% (second compound 3 µM, first compound 0.003 µM); 72% under setting [10]; 57% under setting [11]. Moreover, the viability, T/C (second compound 9.49 µM, first compound 94.9 pM) was 88%; the viability, T/C (second compound 9.49 µM, first compound 0.0003 µM) was 99%; the viability, T/C (second compound 9.49 µM, first compound 0.000949 µM) was 90.3%; the viability, T/C (second compound 9.49 µM, first compound 0.003 µM) is 79.5%; the viability, T/C under setting [12] was 72.3%; the viability, T/C under setting [13] was 62.7%. For the same compound, the viability, T/C was 91.4% (second compound 30 µM, first compound 94.9 pM); 90.3% (second compound 30 µM, first compound 0.0003 µM); 87.1% (second compound 30 µM, first compound 0.000949 µM); 80.6% (second compound 30 µM, first compound 0.003 µM); 69.1% under setting [14]; 53.6% under setting [15].

`CC(=O)Nc1cccc(-n2c(=O)n(C3CC3)c(=O)c3c(Nc4ccc(I)cc4F)n(C)c(=O)c(C)c32)c1`: the viability, T/C is 104% and 102% (compound 94.9 pM); 93.3% and 98.1% (compound 0.0003 µM); 89.2% and 86.9% (compound 0.000949 µM); 86.5% and 68.9% (compound 0.003 µM); 81.9% and 67.4% (compound 0.00949 µM); 67.2% and 59.4% (compound 0.03 µM). In addition, the concentration for half-maximal inhibition (IC50) (curve of compound) is more than 30 nM.

Source of the values: PubChem BioAssay AID2060361 (Molecular Pharmacology Branch, DTP, NCI, 2025).
